In patent publication US7754709B2 (Solvay Pharmaceuticals BV, priority 2003, dated 2010):
Several values for one entry are separate records, joined by “and”; a condition that tells them apart may be missing. Identical values can stand only once.

Key:
Format in all cases: cell-based
[1] = target: T1, 17β-hydroxysteroid dehydrogenase type 2 (Homo sapiens, UniProt P37059); assay: Inhibition of 17β-HSD type 2 in MCF-7 cells stably expressing the isoenzyme (HPLC, tritium labeled estradiol); settings: 2 nM estradiol, read-out: % Inhibition of the 17β-HSD enzyme type 2 (HSD2); for inhibition at 1 µM: MCF7, 1 μM compound; for inhibition at 10 µM: MCF7, 10 μM compound
T1 construct: expressed in transfected cells; host or cells: MCF-7
T1 sequence (P37059 1-387): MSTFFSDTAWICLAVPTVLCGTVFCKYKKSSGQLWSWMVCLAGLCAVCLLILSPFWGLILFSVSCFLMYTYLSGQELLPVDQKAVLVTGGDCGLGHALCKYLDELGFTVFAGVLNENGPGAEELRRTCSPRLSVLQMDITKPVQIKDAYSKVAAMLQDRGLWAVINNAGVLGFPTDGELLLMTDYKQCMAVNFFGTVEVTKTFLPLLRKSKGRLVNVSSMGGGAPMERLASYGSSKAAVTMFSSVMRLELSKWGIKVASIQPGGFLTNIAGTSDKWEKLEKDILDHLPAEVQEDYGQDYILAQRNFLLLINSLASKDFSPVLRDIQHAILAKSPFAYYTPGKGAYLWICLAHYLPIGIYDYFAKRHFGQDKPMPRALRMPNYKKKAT
Text: (§1) Biological Testing Materials and Methods 1. Inhibition of the 17β-hydroxysteroid dehydrogenase type 1, type 2 and type 3 enzyme
(§2) The compounds were screened in respect of 17β-HSD enzyme activity in vitro on established M CF-7 cell lines, each stably expressing one of the respective 17β-HSD isoenzymes. The interconversion of substrate by each isoenzyme and the 17β-HSD inhibiting activity of chemical compounds in these cell lines were detected by HPLC system.
(§3) Varying amounts of the test compounds were incubated in the growth medium of the 17β-HSD expressing cells together tritium labeled substrate (2 nM estrone for 17β-HSD type 1; 2 nM estradiol for 17β-HSD type 2; and 2 nM androstenedione for 17β-HSD type 3). The medium samples were removed after exact incubation time and the reaction is stopped by trichloroacetic acid (TCA). The samples were analyzed by HPLC-coupled flow scintillation analysis.
(§4) For each enzyme type, the HSD-inhibiting activity of an individual test compound was calculated by comparing the conversion of a control sample without any test compound (referred to as “Negative Control”) to the (reduced) conversion of the test sample containing the particular compound to be tested (referred to as “Test Sample”).
(§5) Two concentrations of each compound were used. The number of the compound refers to the numbers indicated in the Experimental Section.

[2] = target: T2, 17β-hydroxysteroid dehydrogenase type 3 (Homo sapiens, UniProt P37058); assay: Inhibition of 17β-HSD type 3 in MCF-7 cells stably expressing the isoenzyme (HPLC, tritium labeled androstenedione); settings: 2 nM androstenedione; for inhibition at 1 µM: MCF7, 1 μM compound; for inhibition at 1 µM / inhibition at 10 µM: read-out: % Inhibition of the 17β-HSD enzyme type 3 (HSD3); for inhibition at 10 µM: MCF7, 10 μM compound
T2 construct: expressed in transfected cells; host or cells: MCF-7
T2 sequence (P37058 1-310): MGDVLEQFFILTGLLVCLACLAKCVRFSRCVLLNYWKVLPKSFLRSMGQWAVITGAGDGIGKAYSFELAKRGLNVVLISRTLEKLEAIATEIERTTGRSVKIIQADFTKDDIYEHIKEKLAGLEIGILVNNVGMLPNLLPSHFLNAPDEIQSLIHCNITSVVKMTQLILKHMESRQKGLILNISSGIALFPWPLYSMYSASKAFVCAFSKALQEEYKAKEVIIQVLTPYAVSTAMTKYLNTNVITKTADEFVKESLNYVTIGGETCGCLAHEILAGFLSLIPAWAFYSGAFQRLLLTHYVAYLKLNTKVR
Text: as §1, §2, §3, §4, §5

[3] = target: T3, 17β-hydroxysteroid dehydrogenase type 1 (Homo sapiens, UniProt P14061); assay: Inhibition of 17β-HSD type 1 in MCF-7 cells stably expressing the isoenzyme (HPLC, tritium labeled estrone); settings: 2 nM estrone; for inhibition at 1 µM: MCF7, 1 μM compound; for inhibition at 1 µM / inhibition at 10 µM: read-out: % Inhibition of the 17β-HSD enzyme type 1 (HSD1); for inhibition at 10 µM: MCF7, 10 μM compound
T3 construct: expressed in transfected cells; host or cells: MCF-7
T3 sequence (P14061 1-328): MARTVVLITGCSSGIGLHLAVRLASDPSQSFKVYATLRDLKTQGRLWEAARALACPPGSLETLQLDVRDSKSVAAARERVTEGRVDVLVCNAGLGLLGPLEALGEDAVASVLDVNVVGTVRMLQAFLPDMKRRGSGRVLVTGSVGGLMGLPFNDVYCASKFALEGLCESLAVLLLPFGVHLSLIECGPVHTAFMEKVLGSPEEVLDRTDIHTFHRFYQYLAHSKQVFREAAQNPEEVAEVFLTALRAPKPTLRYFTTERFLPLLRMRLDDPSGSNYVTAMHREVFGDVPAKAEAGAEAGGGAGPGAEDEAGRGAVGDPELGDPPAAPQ
Text: as §1, §2, §3, §4, §5

inhibition at 1 µM [1] | inhibition at 10 µM [1] | inhibition at 1 µM [2] | inhibition at 10 µM [2] | inhibition at 1 µM [3] | inhibition at 10 µM [3] | % Inhibition of the 17β-HSD enzyme type 3 (HSD3) ([2]; 1 μM compound) | % Inhibition of the 17β-HSD enzyme type 3 (HSD3) ([2]; 10 μM compound) | % Inhibition of the 17β-HSD enzyme type 1 (HSD1) ([3]; 1 μM compound) | % Inhibition of the 17β-HSD enzyme type 1 (HSD1) ([3]; 10 μM compound) | Structure (SMILES)
16.2% | 23.4% | 39% | 24.9% | 10% | 45.9% |  |  |  |  | O=c1c2c3c(sc2nc2n1CCCCC2)CCCC3 [Compound 2a, 2,3,4,7,8,9,10,11-Octahydro[1]benzothieno[2′,3′:4,5]pyrimido-[1,2-a]azepin-13(1H)-one]
15.9% | 21.4% | 4.2% | 9.5% | 21% | 15% |  |  |  |  | O=c1c2c3c(sc2nc2n1CCCCC2)CCC3 [Compound 2b, 1,2,3,6,7,8,9,10-Octahydro-12H-cyclopenta[4′,5′]thieno[2′,3′:4,5]pyrimido[1,2-a]-azepin-12-one]
8.9% | 13.5% | 50.8% | 47% | 22.7% | 39.8% |  |  |  |  | O=c1c2c3c(sc2nc2n1CCCCC2)CCCCC3 [Compound 2c, 1,2,3,4,5,8,9,10,11,12-Decahydro-14H-cyclohepta[4′,5′]thieno[2′,3′:4,5]pyrimido-[1,2-a]azepin-14-one]
26% | 28.9% | 46.8% | 38.8% | 15.8% | 20% |  |  |  |  | O=c1c2c3c(sc2nc2n1CCCC2)CCCC3 [Compound 2e, 1,2,3,4,7,8,9,10-Octahydro-12H-[1]benzothieno[2,3-d]pyrido[1,2-a]pyrimidin-12-one]
37% | 32.4% | 48.2% | 40.4% | 19.9% | 19.2% |  |  |  |  | O=c1c2c3c(sc2nc2n1CCC2)CCCC3 [Compound 2f, 2,3,6,7,8,9-Hexahydro[1]benzothieno[2,3-d]pyrrolo[1,2-a]pyrimidin-10(1H)-one]
44.9% | 24.9% | 51.7% | 51.3% | 30.7% | 37% |  |  |  |  | Cc1nc2sc3c(c2c(=O)n1C)CCCC3 [Compound 2g, 5,6,7,8-Tetrahydro-2,3-dimethyl[1]benzothieno[2,3-d]pyrimidin-4(3H)-one]
20.6% | 29.4% | 4.4% | 9.9% | 12.7% | 18.5% |  |  |  |  | CCc1nc2sc3c(c2c(=O)n1C)CCCC3 [Compound 2i, 5,6,7,8-Tetrahydro-2-ethyl-3-methyl[1]benzothieno[2,3-d]pyrimidin-4(3H)-one]
14.1% | 25.4% | 0.3% | 13.7% | 13.5% | 20.7% |  |  |  |  | O=C1CCc2c1sc1nc3n(c(=O)c21)CCCCC3 [Compound 3b, 1,2,6,7,8,9,10-heptahydrocyclopenta[4′,5′]thieno[2′,3′:4,5]pyrimido[1,2-a]-azepin-3,12-dione]
14.1% | 11.1% | 15.3% |  | 14.3% | 42.9% | 22.3% | 16.7% and 8.1% | 18.2% | 37.6% | O=C1CCCc2c1sc1nc3n(c(=O)c21)CCCCCC3 [Compound 3d, 1,2,7,8,9,10,11,12-octahydro[1]benzothieno[2′,3′:4,5]pyrimido-[1,2-a]azocin-4, 14(3H)-dione]
25.7% | 16.3% | 38.5% | 47.4% | 6.3% | 35.8% |  |  |  |  | O=C1CCCc2c1sc1nc3n(c(=O)c21)CCCC3 [Compound 3e]
31.1% | 21.8% | 43.9% | 40.2% | 8.7% | 22% |  |  |  |  | O=C1CCCc2c1sc1nc3n(c(=O)c21)CCC3 [Compound 3f, 2,3,8,9-Tetrahydro[1]benzothieno[2,3-d]pyrrolo[1,2-a]pyrimidine-6,10(1H,7H)-dione]
3.5% | 1.5% |  | 42.1% | 36.9% | 82.1% | 5.3% and 14.3% | 43.9% | 31.2% | 80.1% | O=CC1=C(Cl)c2sc3nc4n(c(=O)c3c2CC1)CCCCCC4 [Compound 4b, 4-Chloro-1,2,3,7,8,9, 10,11,12-octahydro[1]benzothieno[2′,3′:4,5]pyrimido-[1,2-a]-azocin-14-one-4-carboxyaldehyde]
9.6% | 28.3% | 9.8% | 14.2% | 23.5% | 44.4% | 11.1% | 17.3% | 24.6% | 52.1% | Cn1cnc2sc3c(c2c1=O)CCC(C=O)=C3Cl [Compound 4e, 8-Chloro-5,6-dihydro-3-methyl[1]benzothieno[2,3-d]pyrimidin-4(3H)-one-7-carboxyaldehyde]
19.7% | 25.2% | 43.4% | 100% | 66.1% | 100% |  |  |  |  | CCSC1=C(C=O)CCc2c1sc1nc3n(c(=O)c21)CCCCC3 [Compound 5b, 1,2,7,8,9,10,11,13-Octahydro-13-oxo-4-(ethylthio)[1]benzothieno[2′,3′:4,5]-pyrimido-[1,2-a]azepine-3-carboxaldehyde]
14% | -5.1% |  |  | 19.7% | 22.5% |  |  |  |  | CC1CCc2c(sc3nc4n(c(=O)c23)CCCCC4)C1O (stereo not shown) [Compound 32, 4-Hydroxy-3-methyl-2,3,4,7,8,9,10,1-octahydro [1]benzothieno[2′,3′: 4,5]pyrimido-[1,2-a]azepin-13(1H)-one]
5% | -0.1% |  |  | 15.3% | 22.6% |  |  |  |  | CCCSC1=C(C=O)CCc2c1sc1nc3n(c(=O)c21)CCC(C(=O)O)CC3 (stereo not shown) [Compound 33, 3-Formyl-1,2,7,8,9,10,11,13-octahydro-13-oxo-4-(propylthio)-[1]benzothieno[2′,3′: 4,5] pyrimido[1,2-a]azepine-9-carboxylic acid]
13% | -0.5% |  |  | 14.9% | 48.1% |  |  |  |  | CCCSC1=C(C=O)CCc2c1sc1nc3n(c(=O)c21)CCC(C)CC3 (stereo not shown) [Compound 34, 9-Methyl-1,2,7,8,9,10,11,13-octahydro-13-oxo-4-(propylthio)-[1]benzothieno[2′,3′: 4,5]-pyrimido[1,2-a]azepine-3-carbaldehyde]
